Results on 4 molecules are retold here after patent publication US5610297A, “Peptides ketoamides” (Georgia Tech Research Corp., priority 1995, dated 1997).

The nature of one series: Half-life in liver. It counts as in vitro ADME. As to conditions: unit inferred, unit assumed.
The target of series [1] is Calpain II from rabbit muscle. The series can be described thus: Inhibition of calpain II (Suc-Leu-Tyr-AMC hydrolysis). It counts as biochemical. How it is done: (§1) Materials and Methods. HEPES, heparin, and A23187 were obtained from Calbiochem. Suc-Leu-Tyr-AMC and chromogenic substrates were obtained from Sigma. Calpain I was purified from human erythrocytes according to the method of Kitahara (Kitahara et al., J. Biochem. 95, 1759-1766) omitting the Blue-Sepharose step. Calpain II from rabbit muscle and cathepsin B were purchased from Sigma. Papain was purchased from Calbiochem.
(§2) Assay of Inhibitory Potency. Peptide α-ketoamides were assayed as reversible enzyme inhibitors. Various concentrations of inhibitors in Me2 SO were added to the assay mixture which contained buffer and substrate. The reaction was started by the addition of the enzyme and the hydrolysis rates were followed spectrophotometrically or fluorimetrically.
(§3) Calpain I from human erythrocytes and calpain II from rabbit were assayed using Suc-Leu-Tyr-AMC [Sasaki et al., J. Biol. Chem. 259, 12489-12494 (1984); incorporated herein by reference], and the AMC (7-amino-4-methylcoumarin) release was followed fluorimetrically (excitation at 380 nm, and emmision at 460 nm). Calpains were assayed in 25 mM Tris pH=8.0, 10 mM CaCl2. Fluorescence was followed using a Gilson FL-1A fluorometer or a Perkin-Elmer 203 Fluorescence spectrometer. Cathepsin B was assayed in 20 mM sodium acetate pH=5.2, 0.5 mM dithiothreitol using Bz-Phe-Val-Arg-p-nitroanilide as substrate. Alternately, cathepsin B was assayed with Z-Arg-Arg-AFC [Barrett and Kirschke, Methods Enzymol. 80, 535-561 (1981); incorporated herein by reference], and the AFC (7-amino-4-trifluoromethylcoumarin) release was followed fluorimetrically (excitation at 400 nm and emmision at 505 nm). Papain was assayed in 100 mM KPO4, 1 mM EDTA, 2.5 mM cysteine pH=6.0 using Bz-Arg-AMC or Bz-Arg-NA [Kanaoka et al., Chem. Plmrm. Bull. 25, 3126-3128 (1977); incorporated herein by reference] as a substrate. The AMC (7-amino-4-methylcoumarin) release was followed fluorimetrically (excitation at 380 nm, and emmision at 460 nm). Enzymatic hydrolysis rates were measured at various substrate and inhibitor concentrations, and KI values were determined by either Lineweaver-Burk plots or Dixon plots.
(§4) A 0.1M Hepes, 0.5M NaCl, pH 7.5 buffer was utilized for human leukocyte elastase (HLE), porcine pancreatic elastase (PPE), chymotrypsin and cathepsin G. A 0.1 Hepes, 0.01M CaCl2, pH 7.5 buffer was utilized for trypsin, plasmin, and coagulation enzymes. A 50 mM Tris-HCl, 2 mM EDTA, 5 mM cysteine, pH 7.5 was used as a buffer for papain. A 88 mM KH2 PO4, 12 mM Na2 HPO4, 1.33 mM EDTA, 2.7 mM cysteine, pH 6.0 solution was used as a buffer for cathepsin B. A 20 mM Hepes, 10 mM CaCl2, 10 mM mercatoethanol, pH 7.2 buffer was utilized for calpain I and calpain II.

The target in series [2] is T1, Calpain I from human erythrocytes (Homo sapiens, UniProt P07384).
T1 construct: Calpain I was purified from human erythrocytes; from tissue; host or cells: human erythrocytes
T1 sequence (P07384 1-714): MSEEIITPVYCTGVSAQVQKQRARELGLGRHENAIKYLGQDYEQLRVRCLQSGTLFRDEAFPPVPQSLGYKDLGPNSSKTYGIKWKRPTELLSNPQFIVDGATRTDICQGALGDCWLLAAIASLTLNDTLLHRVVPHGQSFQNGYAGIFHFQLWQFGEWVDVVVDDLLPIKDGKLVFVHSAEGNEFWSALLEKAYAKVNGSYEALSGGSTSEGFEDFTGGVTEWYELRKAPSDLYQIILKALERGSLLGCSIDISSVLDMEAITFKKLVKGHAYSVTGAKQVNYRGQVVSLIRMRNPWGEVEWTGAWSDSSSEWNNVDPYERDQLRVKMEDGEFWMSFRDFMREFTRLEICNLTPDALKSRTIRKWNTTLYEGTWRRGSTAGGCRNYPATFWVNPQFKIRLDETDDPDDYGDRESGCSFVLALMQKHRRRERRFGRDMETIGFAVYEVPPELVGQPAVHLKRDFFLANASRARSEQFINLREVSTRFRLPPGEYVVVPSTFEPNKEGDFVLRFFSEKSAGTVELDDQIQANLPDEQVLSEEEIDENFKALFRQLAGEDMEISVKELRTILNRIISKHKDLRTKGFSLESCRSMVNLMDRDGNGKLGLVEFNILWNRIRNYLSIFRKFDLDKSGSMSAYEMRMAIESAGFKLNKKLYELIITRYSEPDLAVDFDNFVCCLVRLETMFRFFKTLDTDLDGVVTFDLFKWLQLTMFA
T1 sequence (P04632 1-268 partner): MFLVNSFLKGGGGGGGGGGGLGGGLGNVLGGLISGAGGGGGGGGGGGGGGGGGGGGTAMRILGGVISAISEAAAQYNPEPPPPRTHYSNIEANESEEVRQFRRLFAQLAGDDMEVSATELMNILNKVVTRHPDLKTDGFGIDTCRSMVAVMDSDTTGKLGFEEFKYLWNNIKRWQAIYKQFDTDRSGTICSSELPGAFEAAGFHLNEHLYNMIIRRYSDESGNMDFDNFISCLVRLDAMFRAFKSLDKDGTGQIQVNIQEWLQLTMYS
The series can be described thus: Inhibition of calpain I (Suc-Leu-Tyr-AMC hydrolysis). It counts as biochemical. As to the method: as §1, §2, §3, §4

The next series can be described thus: Half-life in plasma. As to conditions: unit inferred, unit assumed. The class given is in vitro ADME.
For another series, the target named is chymotrypsin (Bos taurus, UniProt P00766, DEL14-15/DEL147-148). The series can be described thus: Inhibition of chymotrypsin (Suc-Val-Pro-Phe-NA hydrolysis). It counts as biochemical, bovine. How it is done:
as §2, §4
HLE and PPE were assayed with MeO-Suc-Ala-Ala-Pro-Val-NA and Suc-Ala-Ala-Ala-NA, respectively [Nakajima et al., J. Biol. Chem. 254, 4027-4032 (1979); incorporated herein by reference]. Human leukocyte cathepsin G and chymotrypsin Aα were assayed with Suc-Val-Pro-Phe-NA [Tanaka et al., Biochemistry 24, 2040-2047 (1985); incorporated herein by reference]. The hydrolysis of peptide 4-nitroanilides was measured at 410 nm [ε410 =8800 M^-1 cm^-1; Erlanger et al., Arch. Biochem. Biophys. 95, pp 271-278 (1961); incorporated herein by reference]. Trypsin, thrombin, human plasma kallikrein, porcine pancreatic kallikrein, human factor XIa, and human plasmin were assayed with Z-Arg-SBzl or Z-Gly-Arg-SBu-i [McRae et al., Biochemistry 20, 7196-7206 (1981); incorporated herein by reference]. All peptide thioester hydrolysis rates were measured with assay mixtures containing 4,4'-dithiodipyridine [ε324 =19800 M^-1 cm^-1; Grasetti & Murray, Arch. Biochem. Biophys. 119, 41-49 (1967); incorporated herein by reference].

The next series has as its target cathepsin B. The series is described as follows: Inhibition of cathepsin B. It counts as biochemical. As to conditions: read-out: KI Cath B. As to the method: as §1, §2, §3, §4

Consider `CCNC(=O)C(=O)[C@H](Cc1ccccc1)NC(=O)[C@H](CC(C)C)NC(=O)OCc1ccccc1` [Z--Leu--Phe--CONH--Et, Z-Leu-Phe-CONH-Et], for which the t 1/2 liver in the series “Half-life in liver” was over 1 h. The Ki stood at 0.32 µM in series [1], 7 µM in series [2], 73 µM at chymotrypsin and 6 µM at cathepsin B. Further, the t 1/2 plasma in “Half-life in plasma” was over 1 h.
Consider `CCCNC(=O)C(=O)C(Cc1ccccc1)NC(=O)C(CC(C)C)NC(=O)OCc1ccccc1` (stereo not drawn) [Z--Leu--Phe--CONH--nPr, Z-Leu-Phe-CONH-nPr], for which the t 1/2 liver in “Half-life in liver” is over 1 h. Further, the Ki in series [1] was found to be 0.05 µM; in series [2], 15 µM; on chymotrypsin, 18 µM; on cathepsin B it was 3 µM. The molecule further had a t 1/2 plasma in “Half-life in plasma” of over 1 h.
Molecule `CCCCNC(=O)C(=O)C(CC)NC(=O)C(CC(C)C)NC(=O)OCc1ccccc1` (stereo not drawn) [Z--Leu--Abu--CONH--nBu, Z-Leu-Abu-CONH-nBu] displayed a t 1/2 liver in the series “Half-life in liver” of over 1 h. In addition, the Ki is 0.2 µM in series [2], over 300 µM at chymotrypsin and 13 µM at cathepsin B. The t 1/2 plasma in “Half-life in plasma” was over 1 h.
In the series “Half-life in liver”, `CCNC(=O)C(=O)[C@H](CC)NC(=O)[C@H](CC(C)C)NC(=O)OCc1ccccc1` [Z--Leu--Abu--CONH--Et, Z-Leu-Abu-CONH-Et] had a t 1/2 liver of over 1 h. Besides, the Ki is 0.23 µM in series [1], 0.5 µM in series [2], over 150 µM on chymotrypsin and 2.4 µM at cathepsin B. Moreover, the “better inhibitor of calpain I than Z-Leu-Phe-CONH-Et” value in series [2] (relative to Z-Leu-Phe-CONH-Et) came out at 14 fold. The t 1/2 plasma in the series “Half-life in plasma” is over 1 h.

A word on the Ki: it is the dissociation constant of the complex between target and ligand, obtained from inhibition or displacement.
